Measurements taken from patent US10105357B2, “Indication of antibiotic drugs for preparation of cancer inhibition pharmaceutical composition” (LAUNX BIOMEDICAL CO., LTD., priority 2014, dated 2018).
Counter-ions that a name gives are not always drawn. Like-named read-outs stand apart in the source and are kept apart here.

Key:
[1] = system: BCC (basal cell carcinoma); test: Cell viability analysis, skin cancer BCC; assay type: cell-based, human; conditions: Homo sapiens, 72 h, read-out: The results of antibiotic drug inhibiting cancer cell lines (cell viability analysis), BCC
T24 = test: Cell viability analysis, bladder cancer T24; assay type: cell-based, human; conditions: Homo sapiens, T-24, 72 h, read-out: The results of antibiotic drug inhibiting cancer cell lines (cell viability analysis), T24
[2] = system: HCT116 (p53+) (Colorectal Carcinoma); test: cells; conditions: Homo sapiens, HCT-116, 72 h, read-out: cell viability (survival rate), HCT116

| Structure (SMILES) | viability at 10 µM [1] [%] | viability at 10 µM (T24) [%] | viability at 10 µM ([1]; BCC, repeated experiment) [%] | viability at 10 µM (T24; T24, repeated experiment) [%] | viability at 10 µM [2] [%] |
| --- | --- | --- | --- | --- | --- |
| CN(C)[C@@H]1C(O)=C(C(N)=O)C(=O)[C@@]2(O)C(O)=C3C(=O)c4c(O)cccc4[C@@](C)(O)[C@H]3C[C@@H]12 [Tetracycline HCl] | 100 | 130 |  |  |  |
| CC(C)/N=c1\cc2n(-c3ccc(Cl)cc3)c3ccccc3nc-2cc1Nc1ccc(Cl)cc1 [Clofazimine] |  |  | 72.9 | 74.1 |  |
| CC(C)(C)CC(C)(C)c1ccc(O)c(Cc2ccc(Cl)cc2Cl)c1 [Clofoctol] |  |  | 94.6 | 90.8 | 61 |
| Cc1ccc2c(Cl)cc(Cl)c(O)c2n1 [Chlorquinaldol] |  |  | 43 | 50.6 |  |
| CC(NC(C)(C)C)C(=O)c1cccc(Cl)c1 (stereo not shown) [Amfebutamone (Bupropion), Amfebutamone] | 77.5 | 99.6 |  |  |  |
| Clc1ccc(COC(Cn2ccnc2)c2ccc(Cl)cc2Cl)c(Cl)c1 (stereo not shown) [Miconazole nitrate] | 80.7 | 77.7 |  |  |  |
| CCCCCCCCCCCCCCCC[N+](C)(C)CCN(Cc1ccc(OC)cc1)c1ncccn1 [Thonzonium Bromide] |  |  | 23.4 | 18.5 | 32.9 |
| NC(=O)N/N=C/c1ccc([N+](=O)[O-])o1 [Nitrofurazone (Nitrofural), Nitrofurazone] |  |  | 93 | 87.4 |  |
| CCc1cc2c(cc1CC)CC(NC[C@H](O)c1ccc(O)c3[nH]c(=O)ccc13)C2 [Indacaterol Maleate] |  |  | 82.1 | 122 |  |
| COc1cc(NC(C)CCCN)c2ncccc2c1 (stereo not shown) [Primaquine Diphosphate] | 35.9 | 72.6 |  |  | 69.5 |
| CN(C)CCC=C1c2ccccc2CCc2ccccc21 [Amitriptyline HCl] |  |  | 113 | 97.5 |  |
| CC(C)(C)C(=O)OCOP(=O)(COCCn1cnc2c(N)ncnc21)OCOC(=O)C(C)(C)C [Adefovir Dipivoxil (Preveon, Hepsera), Adefovir Dipivoxil] | 38.9 | 44.8 |  |  |  |
| CC[C@@H]([C@H](C)O)n1ncn(-c2ccc(N3CCN(c4ccc(OC[C@@H]5CO[C@@](Cn6cncn6)(c6ccc(F)cc6F)C5)cc4)CC3)cc2)c1=O [Posaconazole] |  |  | 43.5 | 55.4 |  |
| Cc1ncc([N+](=O)[O-])n1CCO [Metronidazole (Flagyl), Metronidazole] | 68.2 | 93.8 |  |  |  |
| Clc1ccc(C(Cn2ccnc2)OCc2ccsc2Cl)c(Cl)c1 (stereo not shown) [Tioconazole] | 87.8 | 88.8 |  |  |  |
| COc1c(C)c2c(c(O)c1C/C=C(\C)CCC(=O)O)C(=O)OC2 [Mycophenolic (Mycophenolate), Mycophenolic] |  |  | 44.6 | 48.2 |  |
| CN(C)[C@@H]1C(O)=C(C(N)=O)C(=O)[C@@]2(O)C(O)=C3C(=O)c4c(O)ccc(Cl)c4[C@@](C)(O)[C@H]3C[C@@H]12 [Chlortetracycline HCl] | 97.1 | 122 |  |  |  |
